Holding throughout (type): functional
Assay [1] is filed under the species Mus musculus. Nature of the assay: In vitro inhibitory activity against TNF-alpha production in mouse macrophages stimulated with LPS.
Assay [2] concerns Mus musculus. In words: Protection against LPS-induced death of D-galactosamine-sensitized mice (10 in number) at specified dose of 0 mg/kg on day 7.
Assay [3] has as its system Mus musculus. In words: Protection against LPS-induced death of D-galactosamine-sensitized mice (10 in number) at specified dose of 100 mg/kg on day 7.
Assay [4] relates to Mus musculus. Nature of the assay: Protection against LPS-induced death of D-galactosamine-sensitized mice (10 in number) at specified dose of 50 mg/kg on day 7.

The IC50 is the concentration needed to halve the response being measured. Low readings indicate inhibition by little substance, high ones a need for much substance.

Consider `CC(=O)Oc1cc2c(cc1OC(C)=O)C1Cc3cc(OC(C)=O)c(OC(C)=O)cc3C(C2)N1C(C)=O`, for which, in assay [1], the IC50 is over 100 µM.

In assay [1], `COc1cc2c(cc1OC)C1Cc3cc(OC)c(OC)cc3C(C2)N1C(C)=O` came in with an IC50 of 38 µM.

For `CCCC(=O)N1C2Cc3cc4c(cc3C1Cc1cc3c(cc12)OCO3)OCO4`, the Survival rate is 0 number of mice in assay [2], 5 number of mice in assay [3] and 4 number of mice in assay [4]. For the same compound, half-maximal inhibition in assay [1] (IC50) was put at 11 µM.

Consider `CC(=O)N1C2Cc3cc4c(cc3C1Cc1cc3c(cc12)OCO3)OCO4`, for which the results for the Survival rate in assay [2], in assay [3] and in assay [4] were 0 number of mice, 9 number of mice and 7 number of mice, respectively. Moreover, the IC50 in assay [1] is 13 µM.

On to `CNC(=O)N1C2Cc3cc4c(cc3C1Cc1cc3c(cc12)OCO3)OCO4`, for which the Survival rate in assay [2] is 0 number of mice; in assay [3] it was 6 number of mice; in assay [4], 6 number of mice. Moreover, the IC50 in assay [1] was found to be 15 µM.

Consider `O=C(CCO)N1C2Cc3cc4c(cc3C1Cc1cc3c(cc12)OCO3)OCO4`, for which the Survival rate is 0 number of mice in assay [2], 6 number of mice in assay [3] and 5 number of mice in assay [4]. Besides, the IC50 in assay [1] turned out to be 27 µM.

`O=CN1C2Cc3cc4c(cc3C1Cc1cc3c(cc12)OCO3)OCO4`: the Survival rate is 0 number of mice in assay [2], 7 number of mice in assay [3] and 7 number of mice in assay [4]. It took 22 µM to reach half-maximal inhibition in assay [1] (IC50).

For the compound `NCCN1C2Cc3cc4c(cc3C1Cc1cc3c(cc12)OCO3)OCO4`, the results for the Survival rate in assay [2], in assay [3] and in assay [4] were 0 number of mice, 8 number of mice and 8 number of mice, respectively. In assay [1], this compound yielded an IC50 of 14 µM.

`CCCN1C2Cc3cc4c(cc3C1Cc1cc3c(cc12)OCO3)OCO4` yielded an IC50 in assay [1] of 56 µM.

For `CCN1C2Cc3cc4c(cc3C1Cc1cc3c(cc12)OCO3)OCO4`, the Survival rate is given as 0 number of mice in assay [2], 10 number of mice in assay [3] and 9 number of mice in assay [4]. Also, the IC50 in assay [1] is 27 µM.

As to `COCC(=O)N1C2Cc3cc4c(cc3C1Cc1cc3c(cc12)OCO3)OCO4`, in assay [1], the IC50 stood at 17 µM.

As for `CC(=O)N1C2Cc3cc4c(cc3C1Cc1cc(O)c(O)cc12)OCO4` (stereo not drawn), in assay [1], the IC50 came to 46 µM.

Compound `O=C(c1ccccc1)N1C2Cc3cc4c(cc3C1Cc1cc3c(cc12)OCO3)OCO4` returned an IC50 in assay [1] of 38 µM.

As to `CCOC(=O)N1C2Cc3cc4c(cc3C1Cc1cc3c(cc12)OCO3)OCO4`, the Survival rate in assay [2] is 0 number of mice; in assay [3], 3 number of mice; in assay [4] it was 3 number of mice. This compound came in with an IC50 in assay [1] of 31 µM.

In turn, `Oc1cc2c(cc1O)C1Cc3cc4c(cc3C(C2)N1)OCO4` (stereo not drawn) yielded an IC50 in assay [1] of 44 µM.

For the compound `CN1C2Cc3cc4c(cc3C1Cc1cc3c(cc12)OCO3)OCO4`, the IC50 in assay [1] worked out at 19 µM.

With `c1c2c(cc3c1OCCO3)C1Cc3cc4c(cc3C(C2)N1)OCCO4`, the Survival rate in assay [2] is 0 number of mice; in assay [3], 4 number of mice; in assay [4] it was 1 number of mice. In assay [1], this compound gave an IC50 of 22 µM.

As for `c1c2c(cc3c1OCO3)C1Cc3cc4c(cc3C(C2)N1)OCO4`, the Survival rate in assay [2] was 0 number of mice; in assay [3] it was 10 number of mice; in assay [4], 7 number of mice. The compound also had an IC50 in assay [1] of 15 µM.

The compound `CCCCCC(=O)N1C2Cc3cc4c(cc3C1Cc1cc3c(cc12)OCO3)OCO4` came in with an IC50 in assay [1] of over 100 µM.

Regarding `COc1cc2c(cc1OC)C1Cc3cc4c(cc3C(C2)N1)OCO4` (stereo not drawn), in assay [1], inhibition was half-maximal at 100 µM (IC50).

The compound `CCCCN1C2Cc3cc4c(cc3C1Cc1cc3c(cc12)OCO3)OCO4` registered an IC50 in assay [1] of 58 µM.

With `CCOC(=O)CC(=O)N1C2Cc3cc4c(cc3C1Cc1cc3c(cc12)OCO3)OCO4`, the Survival rate in assay [2] was 0 number of mice; in assay [3], 3 number of mice; in assay [4] it was 2 number of mice. The same compound showed an IC50 in assay [1] of 26 µM.

Turning to `CC(=O)N1C2Cc3cc4c(cc3C1Cc1cc3c(cc12)OCCO3)OCCO4`, the results for the Survival rate in assay [2], in assay [3] and in assay [4] were 0 number of mice, 7 number of mice and 4 number of mice, respectively. This compound returned a concentration for half-maximal inhibition (IC50) in assay [1] of 34 µM.

`CC(=O)N1C2Cc3cc(O)c(O)cc3C1Cc1cc(O)c(O)cc12` yielded an IC50 in assay [1] of over 100 µM.

`NCCCN1C2Cc3cc4c(cc3C1Cc1cc3c(cc12)OCO3)OCO4`: in assay [1], the IC50 was found to be 52 µM.

`CCOC(=O)C(=O)N1C2Cc3cc4c(cc3C1Cc1cc3c(cc12)OCO3)OCO4`: the Survival rate in assay [2] was 0 number of mice; in assay [3], 2 number of mice; in assay [4] it was 3 number of mice. In assay [1], this compound displayed an IC50 of 15 µM.

`CCC(=O)N1C2Cc3cc4c(cc3C1Cc1cc3c(cc12)OCO3)OCO4`: the Survival rate in assay [2] is 0 number of mice; in assay [3], 8 number of mice; in assay [4] it was 8 number of mice. The compound further gave an IC50 in assay [1] of 11 µM.

In assay [1], `COc1cc2c(cc1OC)C1Cc3cc4c(cc3C(C2)N1C(C)=O)OCO4` (stereo not drawn) came in with an IC50 of 22 µM.

`OCCN1C2Cc3cc4c(cc3C1Cc1cc3c(cc12)OCO3)OCO4`: the Survival rate was 0 number of mice in assay [2], 9 number of mice in assay [3] and 7 number of mice in assay [4]. Moreover, half-maximal inhibition in assay [1] (IC50) was put at 36 µM.

`COc1cc2c(cc1OC)C1Cc3cc(OC)c(OC)cc3C(C2)N1` had a concentration for half-maximal inhibition (IC50) in assay [1] of over 100 µM.

Compound `Oc1cc2c(cc1O)C1Cc3cc(O)c(O)cc3C(C2)N1` had an IC50 in assay [1] of over 100 µM.

In the case of `O=C(CO)N1C2Cc3cc4c(cc3C1Cc1cc3c(cc12)OCO3)OCO4`, the Survival rate is 0 number of mice in assay [2], 9 number of mice in assay [3] and 6 number of mice in assay [4]. Further, the IC50 in assay [1] was 20 µM.

Take `CC(=O)CCCCn1c(=O)c2c(ncn2C)n(C)c1=O` [PENTOXIFYLLINE]: the Survival rate in assay [2] is listed as 0 number of mice; in assay [3], 4 number of mice. In assay [1], this compound showed an IC50 of 68 µM.

For the origin of these results see ChEMBL document CHEMBL1151099, “Synthesis of new TNF- Inhibitors and their biological properties” (Bioorg Med Chem Lett, 1996).
